“And” between values parts separate entries of the source, which are not always exact repeats. Equal values may be shown once. “Also recorded” adds a separate entry of the source. Read-outs that look alike come from different tables or passages of the source.
Assay: Plasma kinetics in rat following intravenous and oral administration;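 for AUC0-∞: parameter is AUC from zero to infinity in ng·h/mL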
Type: in vivo, Sprague Dawley rats
Description: This study determined the intravenous pharmacokinetics and oral bioavailability of compound 1 of the invention (see FIG. 1A, structure no. 1), compound 2 of the invention (see FIG. 1D, structure no. 19) and compound 3 of the invention (see FIG. 1I, structure no. 53) following administration to Sprague Dawley rats at a dose level of 10 mg/kg.
Six groups of 3 male rats received either a single intravenous or single oral administration of compound 1, 2 or 3 of the invention at a dose level of 10 mg/kg. Blood samples were obtained at various times after dosing. Plasma samples were analysed for unchanged test item using a suitable LC-MS/MS method. Pharmacokinetic parameters were estimated from individual plasma concentrations.
Eighteen male rats each received either a single intravenous or a single oral administration of either compound 1, 2 or 3 at a dose level of 10 mg/kg. The formulation was orally administered to each animal by gastric gavage and intravenously administered to each animal via a tail vein. The dose was administered at a dose volume of 5 mL/kg. The formulations were administered to each animal according to the details in the following table:
Blood samples (ca 0.3 mL) were removed from the femoral vein of each animal into tubes containing lithium heparin as anticoagulant.
Blood samples were collected from 3 rats at the following times after dose administration: • 3, 6, 15, 45 min and 1.5, 2.5, 4, 6, 8, 24 h post dose. Oral Administration
Blood samples were collected from 3 rats at the following times after dose administration: • 5, 15, 45 min and 1.5, 2.5, 4, 6, 8, 24 h post dose. Processing of Blood Samples
Pharmacokinetic parameters of compound 1, 2 and 3 were derived by non-compartmental analysis using WinNonLin Pro version 5.0.1 (Pharsight 2005). The following parameters were derived, where appropriate, from the individual plasma concentration versus time profiles:
• F % The absolute oral bioavailability calculated as [AUC0-t (oral)*Dose(iv)/AUC0-t (iv)*Dose (oral)]*100 based on mean values derived after oral and intravenous administration Consideration was given to the estimation of λz and corresponding t1/2 values. Three or more points are required within the terminal phase for λz and t1/2 to be estimated. The following additional variables were tabulated to aid identification of potentially unreliable estimates of t1/2 and AUC:
Pharmacokinetic parameters were reported as geometric mean except Tmax which was reported as the median. Geometric coefficient of variation was calculated as: […]
Actual sampling times were used for all calculations of pharmacokinetic parameters. Plasma concentrations that were below the limit of quantification were taken as zero for the pharmacokinetic analysis.

[1] = intravenous 10 mg/kg, male rats, individual animals, acetate, 10 mg/kg
[2] = male, Sprague Dawley, rat, plasma, iv, 10 mg/kg, single intravenous 10 mg/kg, male rats, individual animals, read-out: Sample Concentration in plasma
[3] = male, Sprague Dawley, rat, plasma, iv, 10 mg/kg, single intravenous 10 mg/kg, male rats, mean of 3, read-out: Mean Concentration in plasma

bioavailability (Sprague Dawley, rat, plasma, 10 mg/kg oral vs intravenous, male rats, from mean AUC0-t, read-out: Mean absolute oral bioavailability): 3.2% | Between-animal variability in systemic exposure, coefficient of variation (CV) of AUC0-t (intravenous 10 mg/kg, male rats): less than 30% | AUC0-∞ [1]: 1868 ng·h/mL and 2468 ng·h/mL | AUC(0-t) [1]: 1701 ng·h/mL and 2445 ng·h/mL | C0 [1]: 4747 ng/mL and 2637 ng/mL | CL [1]: 90.45 mL/min/kg and 68.88 mL/min/kg | MRT [1]: 2.84 h and 4.84 h | Vss [1]: 15.408 L/kg and 20.008 L/kg | t1/2 [1]: 2.718 h and 3.8896 h | Systemic clearance (in words) (intravenous 10 mg/kg, rats): high | systemic plasma clearance (CL) compared with hepatic blood flow (in words) (intravenous 10 mg/kg, hepatic blood flow 3312 mL/h/kg): greater than hepatic blood flow | AUC(0-inf) (male, Sprague Dawley, rat, plasma, iv, 10 mg/kg, intravenous 10 mg/kg, male rats, Arithmetic Mean): 2030 ng·h/mL | AUC(0-t) (male, Sprague Dawley, rat, plasma, iv, 10 mg/kg, intravenous 10 mg/kg, male rats, Arithmetic Mean, read-out: AUC0-t): 1880 ng·h/mL | C0 (male, Sprague Dawley, rat, plasma, iv, 10 mg/kg, intravenous 10 mg/kg, male rats, Arithmetic Mean, read-out: C0): 3470 ng/mL | clearance (male, Sprague Dawley, rat, plasma, iv, 10 mg/kg, intravenous 10 mg/kg, male rats, Arithmetic Mean, read-out: CL (converted)): 85.5 mL/min/kg | MRT (male, Sprague Dawley, rat, plasma, iv, 10 mg/kg, intravenous 10 mg/kg, male rats, Arithmetic Mean, read-out: MRT): 3.74 h | Vd (male, Sprague Dawley, rat, plasma, iv, 10 mg/kg, intravenous 10 mg/kg, male rats, Arithmetic Mean, read-out: Vss): 18.7 L/kg | half-life (male, Sprague Dawley, rat, plasma, iv, 10 mg/kg, intravenous 10 mg/kg, male rats, Arithmetic Mean, read-out: t1/2 (converted)): 3.29 h | AUC(0-inf) (male, Sprague Dawley, rat, plasma, iv, 10 mg/kg, intravenous 10 mg/kg, male rats, Geometric mean): 2010 ng·h/mL | AUC(0-t) (male, Sprague Dawley, rat, plasma, iv, 10 mg/kg, intravenous 10 mg/kg, male rats, Geometric mean, read-out: AUC0-t): 1840 ng·h/mL | C0 (male, Sprague Dawley, rat, plasma, iv, 10 mg/kg, intravenous 10 mg/kg, male rats, Geometric mean, read-out: C0): 3360 ng/mL | clearance (male, Sprague Dawley, rat, plasma, iv, 10 mg/kg, intravenous 10 mg/kg, male rats, Geometric mean, read-out: CL (systemic plasma clearance) (converted)): 84.6 mL/min/kg | MRT (male, Sprague Dawley, rat, plasma, iv, 10 mg/kg, intravenous 10 mg/kg, male rats, Geometric mean, read-out: MRT): 3.65 h | Vd (male, Sprague Dawley, rat, plasma, iv, 10 mg/kg, intravenous 10 mg/kg, male rats, Geometric mean, read-out: Vss (mean apparent volume of distribution)): 18.5 L/kg | half-life (male, Sprague Dawley, rat, plasma, iv, 10 mg/kg, intravenous 10 mg/kg, male rats, Geometric mean, read-out: t1/2 (mean apparent terminal half-life) (converted)): 3.25 h | AUC(0-inf) (male, Sprague Dawley, rat, plasma, iv, 10 mg/kg, intravenous 10 mg/kg, male rats, Median): 1870 ng·h/mL | AUC(0-t) (male, Sprague Dawley, rat, plasma, iv, 10 mg/kg, intravenous 10 mg/kg, male rats, Median, read-out: AUC0-t): 1700 ng·h/mL | C0 (male, Sprague Dawley, rat, plasma, iv, 10 mg/kg, intravenous 10 mg/kg, male rats, Median, read-out: C0): 3020 ng/mL | clearance (male, Sprague Dawley, rat, plasma, iv, 10 mg/kg, intravenous 10 mg/kg, male rats, Median, read-out: CL (converted)): 90.5 mL/min/kg | MRT (male, Sprague Dawley, rat, plasma, iv, 10 mg/kg, intravenous 10 mg/kg, male rats, Median, read-out: MRT): 3.53 h | Vd (male, Sprague Dawley, rat, plasma, iv, 10 mg/kg, intravenous 10 mg/kg, male rats, Median, read-out: Vss): 20 L/kg | half-life (male, Sprague Dawley, rat, plasma, iv, 10 mg/kg, intravenous 10 mg/kg, male rats, Median, read-out: t1/2 (converted)): 3.25 h | AUC(0-inf) (male, Sprague Dawley, rat, plasma, iv, 10 mg/kg, intravenous 10 mg/kg, male rats, individual animals): 1750 ng·h/mL | AUC(0-t) (male, Sprague Dawley, rat, plasma, iv, 10 mg/kg, intravenous 10 mg/kg, male rats, individual animals, read-out: AUC0-t): 1500 ng·h/mL | C0 (male, Sprague Dawley, rat, plasma, iv, 10 mg/kg, intravenous 10 mg/kg, male rats, individual animals, read-out: C0): 3020 ng/mL | clearance (male, Sprague Dawley, rat, plasma, iv, 10 mg/kg, intravenous 10 mg/kg, male rats, individual animals, read-out: CL (converted)): 97.1 mL/min/kg | MRT (male, Sprague Dawley, rat, plasma, iv, 10 mg/kg, intravenous 10 mg/kg, male rats, individual animals, read-out: MRT): 3.53 h | Vd (male, Sprague Dawley, rat, plasma, iv, 10 mg/kg, intravenous 10 mg/kg, male rats, individual animals, read-out: Vss): 20.6 L/kg | half-life (male, Sprague Dawley, rat, plasma, iv, 10 mg/kg, intravenous 10 mg/kg, male rats, individual animals, read-out: t1/2 (converted)): 3.25 h | concentration at 0.05 h (male, Sprague Dawley, rat, plasma, iv, 10 mg/kg, single intravenous 10 mg/kg, male rats, 0.05 h (3 min), mean of 3, read-out: Mean Concentration in plasma): 2350 ng/mL | concentration at 0.05 h (male, Sprague Dawley, rat, plasma, iv, 10 mg/kg, single intravenous 10 mg/kg, male rats, 0.05 h, individual animals, read-out: Sample Concentration in plasma): 1640 ng/mL | concentration at 0.1 h [2]: 1590 ng/mL | concentration at 0.1 h [3]: 1340 ng/mL | concentration at 0.25 h [2]: 847 ng/mL | concentration at 0.25 h [3]: 724 ng/mL | concentration at 0.75 h [2]: 264 ng/mL | concentration at 0.75 h [3]: 278 ng/mL | concentration at 1.5 h [2]: 250 ng/mL | concentration at 1.5 h [3]: 217 ng/mL | concentration at 2.5 h [2]: 195 ng/mL | concentration at 2.5 h [3]: 191 ng/mL | concentration at 4 h [2]: 122 ng/mL | concentration at 4 h [3]: 132 ng/mL | concentration at 6 h [2]: 83.9 ng/mL | concentration at 6 h [3]: 86 ng/mL | concentration at 8 h (male, Sprague Dawley, rat, plasma, iv, 10 mg/kg, single intravenous 10 mg/kg, male rats, 8 h, mean, read-out: Mean Concentration in plasma): 65.1 ng/mL
SMILES: N=C(N)NN=CC=Cc1cccn1-c1ccccc1[N+](=O)[O-] [Compound 2, [1-(2-nitrophenyl)-1H-pyrrol-2-yl-allylideneamino]guanidinium acetate]
volume of distribution compared with total body water (in words) (intravenous 10 mg/kg, rats, total body water 668 mL/kg, acetate, 10 mg/kg): exceeded the total body water; also recorded: markedly greater than that of the total body water
